Test results: ChEMBL document CHEMBL5291721, “A preclinical secondary pharmacology resource illuminates target-adverse drug reaction associations of marketed drugs” (Nat Commun, 2023)

What was measured:
[1] = molecular target: T1, Alpha-1A adrenergic receptor (Homo sapiens, UniProt P35348); type: functional, cell-based
T1 sequence (P35348 whole entry): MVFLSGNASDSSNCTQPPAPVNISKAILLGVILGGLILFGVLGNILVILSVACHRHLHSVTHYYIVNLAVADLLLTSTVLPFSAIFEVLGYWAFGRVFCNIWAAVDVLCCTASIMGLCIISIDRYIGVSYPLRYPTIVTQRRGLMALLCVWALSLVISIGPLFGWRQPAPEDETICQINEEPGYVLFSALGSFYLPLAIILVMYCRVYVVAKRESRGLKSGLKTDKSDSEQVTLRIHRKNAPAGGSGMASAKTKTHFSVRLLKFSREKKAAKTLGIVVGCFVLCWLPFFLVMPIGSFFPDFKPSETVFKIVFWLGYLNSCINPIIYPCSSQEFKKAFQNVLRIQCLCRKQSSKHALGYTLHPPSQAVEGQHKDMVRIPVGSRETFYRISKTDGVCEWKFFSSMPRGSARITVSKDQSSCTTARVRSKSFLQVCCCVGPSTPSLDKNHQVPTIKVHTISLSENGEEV

[2] = molecular target: T2, Alpha-2A adrenergic receptor (Homo sapiens, UniProt P08913); type: functional, cell-based
T2 sequence (P08913 whole entry): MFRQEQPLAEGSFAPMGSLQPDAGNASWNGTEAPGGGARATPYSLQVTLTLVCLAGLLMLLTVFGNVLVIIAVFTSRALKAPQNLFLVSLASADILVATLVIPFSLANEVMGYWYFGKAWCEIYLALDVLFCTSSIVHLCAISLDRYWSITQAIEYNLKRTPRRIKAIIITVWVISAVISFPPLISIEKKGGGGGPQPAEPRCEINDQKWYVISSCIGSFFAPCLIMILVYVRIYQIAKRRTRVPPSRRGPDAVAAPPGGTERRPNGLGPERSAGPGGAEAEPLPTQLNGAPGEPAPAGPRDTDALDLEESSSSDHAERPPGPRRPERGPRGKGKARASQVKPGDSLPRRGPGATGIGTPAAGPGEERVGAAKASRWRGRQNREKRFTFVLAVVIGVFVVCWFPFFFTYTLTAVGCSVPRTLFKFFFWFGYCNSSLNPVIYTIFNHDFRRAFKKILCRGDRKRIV

[3] = molecular target: T3, Beta-2 adrenergic receptor (Homo sapiens, UniProt P07550); type: functional, cell-based
T3 sequence (P07550 whole entry): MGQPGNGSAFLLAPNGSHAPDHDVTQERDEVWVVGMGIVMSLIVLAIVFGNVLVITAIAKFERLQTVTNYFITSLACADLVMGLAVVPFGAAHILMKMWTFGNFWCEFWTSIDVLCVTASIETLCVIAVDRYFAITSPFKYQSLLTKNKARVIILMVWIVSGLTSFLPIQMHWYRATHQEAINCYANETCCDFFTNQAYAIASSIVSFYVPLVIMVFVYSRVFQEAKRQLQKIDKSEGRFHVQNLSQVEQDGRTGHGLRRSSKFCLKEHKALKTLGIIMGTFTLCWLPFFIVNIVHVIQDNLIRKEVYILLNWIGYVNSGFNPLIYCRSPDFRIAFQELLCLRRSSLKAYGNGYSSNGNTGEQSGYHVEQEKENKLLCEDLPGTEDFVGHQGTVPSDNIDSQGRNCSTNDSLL

[4] = molecular target: T4, Muscarinic acetylcholine receptor M2 (Homo sapiens, UniProt P08172); type: functional, cell-based
T4 sequence (P08172 whole entry): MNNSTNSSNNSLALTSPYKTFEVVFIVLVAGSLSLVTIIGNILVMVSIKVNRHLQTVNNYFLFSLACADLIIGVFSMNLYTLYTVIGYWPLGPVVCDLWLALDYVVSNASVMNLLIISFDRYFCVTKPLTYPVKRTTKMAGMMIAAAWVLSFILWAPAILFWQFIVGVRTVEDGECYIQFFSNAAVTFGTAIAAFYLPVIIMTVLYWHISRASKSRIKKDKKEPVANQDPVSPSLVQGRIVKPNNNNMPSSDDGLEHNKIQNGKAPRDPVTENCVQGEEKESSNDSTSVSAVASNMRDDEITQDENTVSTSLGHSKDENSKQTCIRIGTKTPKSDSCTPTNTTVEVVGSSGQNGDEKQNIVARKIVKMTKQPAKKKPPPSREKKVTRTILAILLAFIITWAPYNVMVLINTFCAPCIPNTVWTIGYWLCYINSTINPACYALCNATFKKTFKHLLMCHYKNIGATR

[5] = molecular target: Neuronal acetylcholine receptor subunit alpha-4 (Homo sapiens, UniProt P43681)
Chain of Neuronal acetylcholine receptor subunit alpha-4 (P43681 whole entry): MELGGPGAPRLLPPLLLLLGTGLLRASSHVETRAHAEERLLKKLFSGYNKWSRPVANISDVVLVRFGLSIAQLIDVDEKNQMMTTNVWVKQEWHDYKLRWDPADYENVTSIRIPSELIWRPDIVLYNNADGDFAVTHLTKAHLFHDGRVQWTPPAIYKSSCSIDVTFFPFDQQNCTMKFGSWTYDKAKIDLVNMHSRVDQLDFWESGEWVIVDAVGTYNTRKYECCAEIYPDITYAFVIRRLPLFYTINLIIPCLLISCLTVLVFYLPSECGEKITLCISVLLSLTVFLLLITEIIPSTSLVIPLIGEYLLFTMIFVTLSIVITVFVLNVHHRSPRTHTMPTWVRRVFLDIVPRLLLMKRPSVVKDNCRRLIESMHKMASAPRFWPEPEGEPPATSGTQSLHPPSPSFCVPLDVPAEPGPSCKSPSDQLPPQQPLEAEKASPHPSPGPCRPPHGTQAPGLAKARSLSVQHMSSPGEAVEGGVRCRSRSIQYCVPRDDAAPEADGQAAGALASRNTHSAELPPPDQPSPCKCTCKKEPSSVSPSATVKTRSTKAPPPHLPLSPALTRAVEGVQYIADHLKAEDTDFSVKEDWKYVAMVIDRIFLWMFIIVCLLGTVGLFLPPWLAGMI

Cannabinoid receptor 1 = Cannabinoid receptor 1 (Homo sapiens, UniProt P21554); type: functional, cell-based
Chain of Cannabinoid receptor 1 (P21554 whole entry): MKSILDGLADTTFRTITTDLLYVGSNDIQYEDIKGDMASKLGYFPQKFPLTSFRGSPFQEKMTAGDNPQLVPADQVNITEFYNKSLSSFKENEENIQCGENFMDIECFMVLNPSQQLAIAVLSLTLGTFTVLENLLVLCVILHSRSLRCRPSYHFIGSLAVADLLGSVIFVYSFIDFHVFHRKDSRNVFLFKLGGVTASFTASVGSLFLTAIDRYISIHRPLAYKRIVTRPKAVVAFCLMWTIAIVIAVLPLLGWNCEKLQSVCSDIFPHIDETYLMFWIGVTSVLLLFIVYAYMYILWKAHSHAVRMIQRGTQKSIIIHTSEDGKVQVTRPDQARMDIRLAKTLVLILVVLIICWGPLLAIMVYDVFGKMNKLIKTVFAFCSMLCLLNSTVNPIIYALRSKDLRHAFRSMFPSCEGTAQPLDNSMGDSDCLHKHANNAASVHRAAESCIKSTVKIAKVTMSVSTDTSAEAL

[6] = molecular target: T5, Gamma-aminobutyric acid receptor subunit alpha-1 (Rattus norvegicus, UniProt P62813)
[7] = molecular target: 5-hydroxytryptamine receptor 2A (Homo sapiens, UniProt P28223); type: functional, cell-based
Chain of 5-hydroxytryptamine receptor 2A (P28223 whole entry): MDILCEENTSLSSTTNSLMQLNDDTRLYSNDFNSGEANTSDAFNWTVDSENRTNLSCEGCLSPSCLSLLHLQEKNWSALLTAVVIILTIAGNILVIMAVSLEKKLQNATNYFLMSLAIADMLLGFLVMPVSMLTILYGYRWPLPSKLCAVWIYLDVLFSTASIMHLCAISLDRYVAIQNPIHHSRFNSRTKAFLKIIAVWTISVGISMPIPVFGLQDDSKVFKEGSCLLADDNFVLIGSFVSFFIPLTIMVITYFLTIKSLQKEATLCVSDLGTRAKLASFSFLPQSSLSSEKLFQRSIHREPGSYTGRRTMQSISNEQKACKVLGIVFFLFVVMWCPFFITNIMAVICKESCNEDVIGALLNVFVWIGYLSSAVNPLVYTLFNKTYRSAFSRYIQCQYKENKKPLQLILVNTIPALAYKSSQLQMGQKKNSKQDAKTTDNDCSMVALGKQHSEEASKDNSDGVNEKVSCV

[8] = molecular target: T6, Equilibrative nucleoside transporter 1 (Homo sapiens, UniProt Q99808)
T6 sequence (Q99808 whole entry): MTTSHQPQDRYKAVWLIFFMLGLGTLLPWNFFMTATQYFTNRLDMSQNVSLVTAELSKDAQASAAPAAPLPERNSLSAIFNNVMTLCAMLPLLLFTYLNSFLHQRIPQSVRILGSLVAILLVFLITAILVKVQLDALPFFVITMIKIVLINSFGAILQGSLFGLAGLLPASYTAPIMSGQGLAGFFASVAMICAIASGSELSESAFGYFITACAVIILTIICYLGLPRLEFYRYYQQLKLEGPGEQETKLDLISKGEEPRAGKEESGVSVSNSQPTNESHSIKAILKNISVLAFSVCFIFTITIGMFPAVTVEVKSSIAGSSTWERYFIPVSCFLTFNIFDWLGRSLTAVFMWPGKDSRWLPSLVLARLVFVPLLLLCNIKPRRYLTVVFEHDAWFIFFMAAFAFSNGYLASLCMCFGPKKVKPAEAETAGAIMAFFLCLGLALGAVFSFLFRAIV

[9] = molecular target: Sodium-dependent dopamine transporter (Homo sapiens, UniProt Q01959)
Chain of Sodium-dependent dopamine transporter (Q01959 whole entry): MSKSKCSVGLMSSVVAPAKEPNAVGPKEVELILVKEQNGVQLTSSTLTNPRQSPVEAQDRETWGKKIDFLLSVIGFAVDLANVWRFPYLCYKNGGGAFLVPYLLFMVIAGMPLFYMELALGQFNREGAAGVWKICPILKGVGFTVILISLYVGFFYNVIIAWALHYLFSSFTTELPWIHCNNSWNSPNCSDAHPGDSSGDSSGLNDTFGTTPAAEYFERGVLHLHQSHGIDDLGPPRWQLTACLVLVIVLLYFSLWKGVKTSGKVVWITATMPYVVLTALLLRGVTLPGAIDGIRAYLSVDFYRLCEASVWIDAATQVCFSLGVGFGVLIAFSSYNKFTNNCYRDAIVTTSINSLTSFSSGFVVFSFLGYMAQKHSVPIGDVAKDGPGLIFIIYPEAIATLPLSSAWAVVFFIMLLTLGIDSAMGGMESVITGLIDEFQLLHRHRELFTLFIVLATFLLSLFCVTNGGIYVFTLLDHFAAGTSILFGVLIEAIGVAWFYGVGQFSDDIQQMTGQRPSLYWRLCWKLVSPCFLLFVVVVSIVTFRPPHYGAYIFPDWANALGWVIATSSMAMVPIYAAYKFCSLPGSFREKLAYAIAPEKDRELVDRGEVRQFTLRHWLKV

[10] = molecular target: T1, Alpha-1A adrenergic receptor; type: functional, cell-based; remark: listed apart in the source
[11] = molecular target: T2, Alpha-2A adrenergic receptor; type: functional, cell-based; remark: listed apart in the source
[12] = molecular target: T3, Beta-2 adrenergic receptor
[13] = molecular target: Voltage-dependent L-type calcium channel subunit alpha-1C (Rattus norvegicus, UniProt P22002); type: functional
Chain of Voltage-dependent L-type calcium channel subunit alpha-1C (P22002 whole entry): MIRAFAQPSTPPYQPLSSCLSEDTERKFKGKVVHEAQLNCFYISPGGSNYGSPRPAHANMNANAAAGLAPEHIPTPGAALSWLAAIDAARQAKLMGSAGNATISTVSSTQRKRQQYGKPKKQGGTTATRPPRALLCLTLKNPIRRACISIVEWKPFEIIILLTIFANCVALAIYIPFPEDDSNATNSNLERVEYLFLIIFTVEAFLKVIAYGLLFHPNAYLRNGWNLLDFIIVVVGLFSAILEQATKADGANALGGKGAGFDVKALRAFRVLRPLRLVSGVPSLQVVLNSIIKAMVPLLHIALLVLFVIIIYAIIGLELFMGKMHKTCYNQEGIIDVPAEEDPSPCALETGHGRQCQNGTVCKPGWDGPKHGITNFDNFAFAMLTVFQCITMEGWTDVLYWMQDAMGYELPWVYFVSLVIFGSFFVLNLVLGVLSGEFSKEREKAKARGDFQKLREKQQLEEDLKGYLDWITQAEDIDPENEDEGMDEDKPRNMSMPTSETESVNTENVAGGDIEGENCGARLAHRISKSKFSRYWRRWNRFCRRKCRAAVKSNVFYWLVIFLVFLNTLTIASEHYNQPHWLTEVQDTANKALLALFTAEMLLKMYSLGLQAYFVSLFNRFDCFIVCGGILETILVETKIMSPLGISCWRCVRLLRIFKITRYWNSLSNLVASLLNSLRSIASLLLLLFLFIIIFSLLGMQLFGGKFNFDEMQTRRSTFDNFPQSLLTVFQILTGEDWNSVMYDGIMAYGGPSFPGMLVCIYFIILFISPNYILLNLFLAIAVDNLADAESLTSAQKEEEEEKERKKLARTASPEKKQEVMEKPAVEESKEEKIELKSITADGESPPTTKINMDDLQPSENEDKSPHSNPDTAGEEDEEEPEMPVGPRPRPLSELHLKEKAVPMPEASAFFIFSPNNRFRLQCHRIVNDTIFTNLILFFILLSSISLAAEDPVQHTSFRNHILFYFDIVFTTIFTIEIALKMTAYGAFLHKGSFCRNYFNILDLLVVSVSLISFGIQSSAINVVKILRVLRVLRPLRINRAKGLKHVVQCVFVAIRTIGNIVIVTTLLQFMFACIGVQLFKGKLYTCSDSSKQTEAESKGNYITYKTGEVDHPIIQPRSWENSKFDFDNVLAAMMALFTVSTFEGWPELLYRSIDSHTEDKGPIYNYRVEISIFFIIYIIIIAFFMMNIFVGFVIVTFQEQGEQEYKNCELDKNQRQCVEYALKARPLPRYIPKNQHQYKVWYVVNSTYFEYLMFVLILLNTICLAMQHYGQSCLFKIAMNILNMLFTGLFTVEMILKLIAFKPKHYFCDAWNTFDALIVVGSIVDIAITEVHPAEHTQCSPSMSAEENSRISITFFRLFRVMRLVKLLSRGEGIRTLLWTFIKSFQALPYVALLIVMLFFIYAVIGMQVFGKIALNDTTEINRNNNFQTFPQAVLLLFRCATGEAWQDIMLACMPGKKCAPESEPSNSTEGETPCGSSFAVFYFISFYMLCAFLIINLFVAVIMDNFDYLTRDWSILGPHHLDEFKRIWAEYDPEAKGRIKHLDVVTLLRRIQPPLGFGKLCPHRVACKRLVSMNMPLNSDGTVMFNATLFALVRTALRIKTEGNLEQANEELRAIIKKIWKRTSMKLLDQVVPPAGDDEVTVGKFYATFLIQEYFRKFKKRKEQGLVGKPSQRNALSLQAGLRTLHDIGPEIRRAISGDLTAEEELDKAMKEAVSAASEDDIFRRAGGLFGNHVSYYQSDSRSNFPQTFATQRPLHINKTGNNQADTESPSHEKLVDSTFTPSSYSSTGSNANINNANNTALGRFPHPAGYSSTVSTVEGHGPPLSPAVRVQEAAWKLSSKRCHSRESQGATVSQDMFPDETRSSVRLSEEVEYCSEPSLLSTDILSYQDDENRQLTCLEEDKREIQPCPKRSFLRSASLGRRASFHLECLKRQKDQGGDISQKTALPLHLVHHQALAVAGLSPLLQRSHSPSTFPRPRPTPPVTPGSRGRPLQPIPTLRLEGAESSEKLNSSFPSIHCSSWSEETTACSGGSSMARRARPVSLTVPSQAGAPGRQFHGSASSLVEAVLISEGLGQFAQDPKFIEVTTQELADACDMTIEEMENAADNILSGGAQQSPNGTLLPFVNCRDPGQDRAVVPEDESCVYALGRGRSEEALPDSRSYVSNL

D(3) dopamine receptor = D(3) dopamine receptor (Homo sapiens, UniProt P35462)
[14] = molecular target: T5, Gamma-aminobutyric acid receptor subunit alpha-1; remark: listed apart in the source
[15] = molecular target: Prostaglandin G/H synthase 1 (Homo sapiens, UniProt P23219); type: functional
[16] = molecular target: Sodium-dependent noradrenaline transporter (Homo sapiens, UniProt P23975)
Also: assay procedure not described here.

Compound	AC50 [1] [µM]	AC50 [2] [µM]	AC50 [3] [µM]	AC50 [4] [µM]	AC50 [5] [µM]	AC50 (Cannabinoid receptor 1) [µM]	AC50 [6] [µM]	AC50 [7] [µM]	AC50 [8] [µM]	AC50 [9] [µM]	AC50 [10] [µM]	AC50 [11] [µM]	AC50 [12] [µM]	AC50 [13] [µM]	AC50 (D(3) dopamine receptor) [µM]	AC50 [14] [µM]	AC50 [15] [µM]	AC50 [16] [µM]
CN(C)C/C=C/C(=O)Nc1cc2c(Nc3ccc(F)c(Cl)c3)ncnc2cc1O[C@H]1CCOC1 [AFATINIB]	> 30	> 30	> 30	23	> 30	> 30	> 30	> 30	> 30	23.2	> 30							
CC1=C(C(=O)OC(C)C)C(c2cccc([N+](=O)[O-])c2)C(C(=O)OC2CN(C(c3ccccc3)c3ccccc3)C2)=C(N)N1 (configuration not stated) [AZELNIDIPINE]	> 30	> 30		> 30	> 30	> 30	> 30	> 30	> 30	26	26	> 30	> 30	0.092				
CC(Cc1cccc(C(F)(F)F)c1)NCCOC(=O)c1ccccc1 (configuration not stated) [BENFLUOREX]	> 30	> 30	> 30	> 30	> 30	> 30		> 30		15	14							
COc1ccc([C@@H]2CC(=O)c3c(O)cc(O)cc3O2)cc1O [HESPERETIN]		> 10		> 10	> 10		> 10	> 10	> 10	> 10		> 10	> 10	> 10				
CNCCc1ccc(OC(=O)C(C)C)c(OC(=O)C(C)C)c1 [IBOPAMINE]	0.131	3.48	9.93	> 30	> 30	> 30	> 30	> 30	> 30	> 30			> 30	18				
COC(=O)C1=C(C)NC(C)=C(C(=O)OCCN2CCN(C(c3ccccc3)c3ccccc3)CC2)C1c1cccc([N+](=O)[O-])c1 (configuration not stated) [MANIDIPINE 6300]	> 30	> 30	> 30	> 30	> 30	> 30	> 30	> 30	> 30	23	> 30	> 30	> 30	0.3				
C=C1c2cccc(O)c2C(=O)C2=C(O)[C@]3(O)C(=O)C(C(N)=O)=C(O)[C@@H](N(C)C)[C@@H]3[C@@H](O)[C@H]12 [METHACYCLINE]		> 10		> 10	> 30		> 10	> 10	> 10	> 10		> 10	> 10	> 10				
O=C1c2cccc3c2[C@H](CCC3)CN1[C@@H]1CN2CCC1CC2 [PALONOSETRON]	> 30	> 30		> 30	38.5		> 30	> 30	> 30	> 30	29	25	> 30	> 30				
OC[C@H]1O[C@@H](n2cnc3c2NC=NC[C@H]3O)C[C@@H]1O [PENTOSTATIN]	> 30	> 30	> 30	> 30	> 30	> 30	> 30	> 30	> 30	> 30		> 30						
Cc1cccc(C)c1NC(=O)CC12CCCN1CCC2 [PILSICAINIDE]	> 30	> 30		> 30	> 30	> 30	> 30	> 30	> 30	> 30	> 30	> 30	> 30	> 30				
O=C1OC(OC(=O)c2cccnc2Nc2cccc(C(F)(F)F)c2)c2ccccc21 (configuration not stated) [TALNIFLUMATE]	> 30	> 30	> 30	> 30	> 30	> 30	> 30	> 30	> 30	> 30								
O=S1(=O)CCN(CN2CCS(=O)(=O)NC2)CN1 [TAUROLIDINE]	> 30	> 30	> 30	> 30	> 30	> 30	> 30	> 30	> 30	> 30	> 30	> 30			> 30	> 30	> 30	> 30
C[C@]12C=CC(=O)C=C1CC[C@@H]1[C@@H]2CC[C@]2(C)OC(=O)CC[C@@H]12 [TESTOLACTONE]	> 30	> 30	> 30	> 10	> 10	> 30	> 10	> 30	> 10	> 10	> 30	> 30	> 10	> 10				
CCOC(=O)c1c(CSc2ccccc2)n(C)c2cc(Br)c(O)c(CN(C)C)c12 [UMIFENOVIR]	> 30	> 30		28	> 30	> 30	> 30	> 30	> 30	9.1		> 30	> 30	> 30				
